Laboratory results reported in PubChem BioAssay (NCI).
“And” between values parts separate entries of the source, which are not always exact repeats. Equal entries are not always repeated.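 1) Cells in 96-well plates. 2) Compound, 48 h, 5 concentrations. 3) Linear interpolation between surrounding doses. 4) Unreached endpoint = highest concentration. Abbreviation: GI50, concentration required for 50% inhibition of growth. TGI is the concentration that stops growth completely.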

Experiments:
Assay in all cases: NCI anticancer screen, dose series, 48 h
EKVX NSCLC = tested on: EKVX NSCLC
COLO 205 colon = tested on: COLO 205 colon
A498 renal = tested on: A498 renal
SK-MEL-5 melanoma = tested on: SK-MEL-5 melanoma
UACC-257 melanoma = tested on: UACC-257 melanoma
RXF 393 renal = tested on: RXF 393 renal
UO-31 renal = tested on: UO-31 renal
HCT-116 colon = tested on: HCT-116 colon
IGROV1 ovarian = tested on: IGROV1 ovarian
ACHN renal = tested on: ACHN renal

SMILES	GI50 (EKVX NSCLC)	TGI (EKVX NSCLC)	GI50 (COLO 205 colon)	TGI (COLO 205 colon)	GI50 (A498 renal)	TGI (A498 renal)	GI50 (SK-MEL-5 melanoma)	TGI (SK-MEL-5 melanoma)	GI50 (UACC-257 melanoma)	TGI (UACC-257 melanoma)	GI50 (RXF 393 renal)	TGI (RXF 393 renal)	GI50 (UO-31 renal)	TGI (UO-31 renal)	GI50 (HCT-116 colon)	TGI (HCT-116 colon)	GI50 (IGROV1 ovarian)	TGI (IGROV1 ovarian)	GI50 (ACHN renal)	TGI (ACHN renal)
O=C1Nc2c(ccc(Cl)c2Cl)/C1=C\c1cc(C(F)(F)F)cc(C(F)(F)F)c1	1.93 µM	11.2 µM	1.32 µM	4.84 µM	5.59 µM	13.6 µM	2.67 µM	8.45 µM	6.62 µM	13.7 µM	1.21 µM	2.94 µM	0.485 µM	8.74 µM	1.41 µM	5.07 µM	0.222 µM	3.52 µM	3.18 µM	11.3 µM
NNc1ncnc2cccc(Cl)c12	–	32 µM	–	> 100 µM	–	> 100 µM	–	> 100 µM	–	> 100 µM	–	> 100 µM	–	> 100 µM	–	> 100 µM	–	> 100 µM	–	> 100 µM
CS(=O)(=O)c1ccc(-c2cnc(NCc3ccco3)n3cnnc23)cc1	> 100 µM	> 100 µM	28.7 µM	> 100 µM	> 100 µM	> 100 µM	31.7 µM	> 100 µM	24.7 µM	> 100 µM	> 100 µM	> 100 µM	38.8 µM	> 100 µM	> 100 µM	> 100 µM	> 100 µM	> 100 µM	> 100 µM	> 100 µM
ClCc1ccc(-c2ccc(Cn3cnc4c(Cl)ncnc43)cc2)cc1	2.98 µM	12.9 µM	1.82 µM	4.27 µM	20.5 µM	37 µM	2.49 µM	7.17 µM	3.76 µM	24.7 µM	1.88 µM	4.51 µM	2.29 µM	5.21 µM	1.48 µM	2.79 µM	3.59 µM	57.2 µM	1.5 µM	2.89 µM
COC(=O)Cc1nn2c(nc1=O)sc1ccc3ccccc3c12	–	> 100 µM	–	> 100 µM	–	> 100 µM	–	> 100 µM	–	> 100 µM	–	96 µM	–	> 100 µM	–	> 100 µM	–	> 100 µM	–	> 100 µM
O=Cc1cn(S(=O)(=O)c2ccccc2)c2ccccc12	–	> 100 µM	–	–	–	> 100 µM	–	–	–	> 100 µM	–	> 100 µM	–	68 µM	–	40.1 µM	–	> 100 µM	–	> 100 µM
CC/C(=C(/CC)c1ccc(O)cc1)c1ccc(O)cc1	5.66 µM	34.7 µM	6.31 µM	19.7 µM	12.4 µM	25.2 µM	3.02 µM	12.9 µM	7.04 µM	22.7 µM	6.72 µM	21.8 µM	6.38 µM	21.6 µM	4.92 µM	15.9 µM	12.4 µM	52.3 µM	6.07 µM	18.3 µM
C/C(CC(=O)Nc1ccc([N+](=O)[O-])cc1)=N\Nc1ccc([N+](=O)[O-])cc1[N+](=O)[O-]	–	> 100 µM	–	> 100 µM	–	> 100 µM	–	> 100 µM	–	> 100 µM	–	> 100 µM	–	> 100 µM	–	> 100 µM	–	> 100 µM	–	> 100 µM
O=c1sc(-c2nc3ccccc3[nH]2)c(/N=C/c2ccccc2)n1-c1ccccc1	–	> 100 µM	–	> 100 µM	–	> 100 µM	–	> 100 µM	–	> 100 µM	–	> 100 µM	–	> 100 µM	–	–	–	> 100 µM	–	> 100 µM
CCOC(=O)CP(=S)(S)c1ccccc1 (configuration not stated)	–	> 100 µM	–	> 100 µM	–	> 100 µM	–	> 100 µM	–	> 100 µM	–	> 100 µM	–	> 100 µM	–	–	–	–	–	> 100 µM
O=C(NC(Cc1ccccc1)C(=O)CCl)OCc1ccccc1 (configuration not stated)	–	–	10 µM	24.1 µM and 24 µM	10.2 µM	23 µM and 27.6 µM	4.38 µM	16.9 µM and 26.4 µM	–	26.7 µM and 26.2 µM	3.62 µM	14.2 µM	3.91 µM	16.4 µM and 25.6 µM	1.65 µM	3.32 µM and 26.5 µM	2.98 µM	13.6 µM and 27.3 µM	3.72 µM	13.3 µM and 21.8 µM
CCOC(=O)Nc1cc(-c2ccc(C)c(NS(C)(=O)=O)c2)nn2c(C)nnc12	–	–	0.452 µM	1.55 µM	1.59 µM	5.88 µM	2.68 µM	10.4 µM	1.11 µM	> 100 µM	2.59 µM	12.9 µM	0.697 µM	> 100 µM	1.9 µM	15.3 µM	1.57 µM	8.17 µM	2.64 µM	60.7 µM
COc1ccc(NC(=O)C2=CC(=O)c3ccc(O)cc3C2=O)c(OC)c1	–	> 100 µM	–	> 100 µM	–	> 100 µM	–	> 100 µM	–	> 100 µM	–	> 100 µM	–	–	–	> 100 µM	–	> 100 µM	–	> 100 µM
O=C(CC1(O)C(=O)Nc2ccc([N+](=O)[O-])cc21)c1ccc(Br)cc1 (configuration not stated)	–	> 100 µM	–	> 100 µM	–	50.3 µM	–	–	–	> 100 µM	–	71.1 µM	–	> 100 µM	–	> 100 µM	–	–	–	> 100 µM
c1cnc2nc3n(c2c1)CSC3	–	> 100 µM	–	> 100 µM	–	> 100 µM	–	> 100 µM	–	> 100 µM	–	> 100 µM	–	> 100 µM	–	–	–	> 100 µM	–	> 100 µM
COc1cc(OC)c(/C=C/C(=O)c2c(O)cc(OC)c(C3CCN(C)CC3)c2OC)c(OC)c1	1.12 µM	2.48 µM	1.8 µM	3.23 µM	1.6 µM	3.02 µM	1.64 µM	3.07 µM	1.46 µM	2.77 µM	1.76 µM	3.3 µM	1.36 µM	2.81 µM	0.414 µM	1.65 µM	–	–	1.58 µM	2.98 µM
Cn1c2c(c3ccccc31)CCN(CCCN1CCN(c3ccccc3)CC1)C2=O	–	77.6 µM	–	37 µM	–	32.8 µM	–	42.1 µM	–	–	–	32.6 µM	–	30.3 µM	–	29.8 µM	–	38 µM	–	44.7 µM
c1ccc(N2N=NC3C4CC(C5c6ccccc6C45)C32)cc1 (configuration not stated)	–	> 100 µM	–	> 100 µM	–	> 100 µM	–	38.3 µM	–	76.4 µM	–	44.1 µM	–	72.1 µM	–	82.7 µM	–	> 100 µM	–	–
